Results from patent US6692928B1, “Methods for identifying cardiovascular agents” (New England Medical Center Hospitals, Inc., priority 1996, dated 2004).
Read-outs that look alike come from different tables or passages of the source.

What was measured:
eNOS [1] = assay: eNOS activity in ovine pulmonary aortic endothelial cells (PAEC); type: cell-based; conditions: for basal eNOS activity: no E2
Text: (§1) Several molecular and pharmacologic interventions can disrupt this rapid ERα-eNOS signaling pathway.

[2] = test system: endothelium-denuded aortic rings; assay: Mouse aortic vascular ring bioassay, phenylephrine-induced constriction; conditions: male mice
Text: An eight-chamber vascular ring bioassay system may be used to study vasomotion in vascular rings from mice. Vascular contraction and relaxation may be examined in endothelial-intact and endothelial-denuded mouse aortic vascular rings. […] The mouse aortic ring experiments may be carried out in rings from wild type, ERαKO and ERβKO animals.

human eNOS gene = assay: eNOS luciferase reporter in rat cardiomyocytes; type: cell-based; conditions: 1 nM E2, 48 hours
Text: (§2) ER-regulation of two cardiac target genes, iNOS and eNOS, were studied in transient transfection experiments using either an iNOS-luciferase reporter plasmid (containing 1.1 Kb of the 5′-flanking region of the human iNOS gene driving expression of the luciferase cDNA) or an eNOS luciferase reporter plasmid (containing 1.6 Kb of the 5′ flanking region of the human eNOS gene driving expression of the luciferase cDNA). […] In these experiments, E2 increased the abundance of iNOS protein (50+/−23-fold; n=3; p<0.05) as well as eNOS protein (15.7+/−4.3 fold; n=3; p<0.05).

eNOS protein = eNOS protein level by immunoblotting; type: cell-based, rat; conditions: n=3
Text: as §2

human iNOS gene = assay: iNOS-luciferase reporter in rat cardiomyocytes; type: cell-based; conditions: 1 nM E2, 48 hours
Text: as §2

eNOS [3] = assay: eNOS activity in transfected COS 7 cells; type: cell-based
Text: In contrast, ERα and eNOS coexpression had no effect on basal (unstimulated) eNOS activity (102+/−33% of activity in sham-transfected cells (ERα(−)).

vascular injury response = conditions: 14 days after carotid injury, physiologic levels
Text: Vascular medial are increases and smooth muscle cell proliferation were quantitated 14 days following cartoid injury in ovariectomized female mice treated with vehicle or physiologic levels of 17-β estradiol.

iNOS protein = iNOS protein level by immunoblotting; type: cell-based, rat; conditions: n=3
Text: as §2

MAP kinase = MAP kinase activity in PAEC; type: cell-based, ovine; conditions: 5 minute exposure, 10^−8M E2
Text: as §1

vascular injury = assay: Mouse carotid injury model, L-NAME and eNOS knockout studies; type: in vivo, mice
Text: Two endpoints were routinely analyzed. First, computerized morphometrics were collected to examine the extent of vascular injury by quantitating medial area measurements. Second, BrdU labeling of VSMC and endothelial cells that proliferated following the injury was quantitated, which required extensive immunohistochemical staining for (i) BrdU, (ii) smooth muscle α-actin, and (iii) Factor VIII-related antigen (endothelial cells).
The studies may also be carried out in wild type mice and mice lacking ERα, ERβ, eNOS, iNOS, or nNOS, or in mice lacking a combination of these proteins. The level of NOS isoforms may be examined using isoform-specific antibodies.

estrogen receptor = target: T1, estrogen receptor (Homo sapiens, UniProt P03372); assay: ERE-Luc reporter activation of the estrogen receptor in transfected cells; type: cell-based
T1 construct: expressed in transfected cells; host or cells: PVEC, HSVSMC, human aortic VSMC, HeLa (transient transfection)
T1 sequence (P03372 1-595): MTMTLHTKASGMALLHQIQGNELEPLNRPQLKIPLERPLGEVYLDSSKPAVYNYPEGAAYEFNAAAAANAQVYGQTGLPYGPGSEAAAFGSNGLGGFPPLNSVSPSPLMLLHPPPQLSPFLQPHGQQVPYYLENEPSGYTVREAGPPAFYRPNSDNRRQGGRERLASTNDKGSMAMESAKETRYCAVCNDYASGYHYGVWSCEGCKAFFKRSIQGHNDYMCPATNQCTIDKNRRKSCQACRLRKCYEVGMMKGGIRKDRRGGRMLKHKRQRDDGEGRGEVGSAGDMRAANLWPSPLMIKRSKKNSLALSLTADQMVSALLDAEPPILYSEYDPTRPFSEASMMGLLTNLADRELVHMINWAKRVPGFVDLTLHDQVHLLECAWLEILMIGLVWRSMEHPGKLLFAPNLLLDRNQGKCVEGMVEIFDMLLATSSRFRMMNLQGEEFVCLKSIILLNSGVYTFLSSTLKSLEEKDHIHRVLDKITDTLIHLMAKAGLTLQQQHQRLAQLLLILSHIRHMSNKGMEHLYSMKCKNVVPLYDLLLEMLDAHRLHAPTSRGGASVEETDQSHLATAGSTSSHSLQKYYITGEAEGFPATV
Method: The cells were then cultured for 48 hours in serum-free medium in the absence or presence of EGF (100 ng/ml).

pERE-Luc reporter = pERE-Luc reporter in GH3B6 cells; type: cell-based, rat; conditions: same conditions (estrogen 10^−6M, 48 hours)
VEGF expression [4] = assay: pmVEGF-Luc reporter in WB572 cells; type: cell-based, human; conditions: estrogen 10^−6M, 48 hours
Text: (§3) One useful reporter construct is pmVEGF-Luc. In this reporter construct, a 1.6 kB fragment of genomic DNA located upstream of the murine vascular endothelial cell growth factor (VEGF) gene has been inserted into the pGL2-Basic luciferase reporter plasmid (Promega; Madison, Wis.). The 1.6 kB fragment includes the transcription start site, 1.2 kB of sequence upstream of the start site, and 0.4 kB of sequence downstream of the start site. Useful variants of this reporter plasmid can be made by deleting a portion of the murine VEGF control region. For example, pVEGF-Luc-Apa/Kpn is identical to pVEGF-luc except that 455 bp at the 5′ end of the 1.6 kB fragment have been removed; pVEGF-Luc-Mlu is identical to pVEGF-luc except that 768 bp at the 5′ end of the 1.6 kB fragment have been removed; and pVEGF-Luc-Sma is identical to pVEGF-luc except that 455 bp at the 5′ end of the 1.6 kB fragment have been removed. Similar reporter constructs can be created using upstream regulatory sequences from the human VEGF gene. For example, phVEGF-Luc is a reporter construct in which 5.1 kb genomic DNA upstream of the human VEGF coding sequence inserted into the pGL2-Basic luciferase reporter plasmid. This particular construct includes 3.4 kb of sequence upstream of the VEGF transcription start site and 1.7 kb untranslated sequence downstream of the transcription start site.

VEGF expression [5] = assay: VEGF expression in rat VSMC (A7r5 cells); type: cell-based
[6] = estrogen replacement therapy, by as much as; cited from earlier work
VEGF gene [7] = assay: VEGF-luciferase reporter, transiently transfected HSVSMC; type: cell-based, human; conditions: VEGF-luciferase + estrogen receptor α construct, 1 μM estrogen, n=12
Text: (§4) To study the role of estrogen on expression of the VEGF gene in vascular smooth muscle cells, human saphenous vein smooth muscle cells (HSVSMC) and HeLa cells were transiently transfected with a VEGF-luciferase reporter construct. In this reporter construct, expression of luciferase is under the control of a 1.2 kB fragment of the murine VEGF gene regulatory region. The cells were also transfected with an estrogen receptor α expression construct. All of the results described below have been normalized for transfection efficiency.

PAEC = assay: Protein tyrosine phosphorylation in PAEC; type: cell-based
Method: An immortalized PAEC line retains the ER-eNOS activation pathway completely and provides a useful reagent for identifying other members of the pathway. Experiments indicate that a number of proteins are rapidly tyrosine phosphorylated following exposure of PAEC to estrogen. This occurs within 5-10 minutes and includes a series of low molecular weight proteins (15-40 Kd), as well as several larger proteins.

VEGF expression [8] = assay: pmVEGF-Luc reporter in GH3B6 cells; type: cell-based, rat; conditions: estrogen 10^−6M, 48 hours
Text: as §3

VEGF gene [9] = assay: VEGF-luciferase reporter, transiently transfected HeLa cells; type: cell-based
Text: as §4

With C[C@]12CC[C@@H]3c4ccc(O)cc4CC[C@H]3[C@@H]1CC[C@H]2O [17α-estradiol] the eNOS activity (eNOS [1]; PAEC, 10^−12 to 10^−6M) was “had no effect”.
In the case of C[C@]12CC[C@@H]3c4ccc(O)cc4CC[C@H]3[C@@H]1CC[C@@H]2O [E2, 17β-estradiol], the phenylephrine-induced constriction ([2]; chronic (18h) treatment) is reported as “inhibited contraction”, the eNOS activity (eNOS [1]; PAEC, E2 10^−8M) is reported as “stimulates eNOS activity” and the “time to maximal eNOS stimulation” value (eNOS [1]; PAEC, E2 10^−8M) is reported as at most 5 min. The “increase of eNOS reporter activity” value (human eNOS gene; n=9) was 6.9+/−0.06 fold, the “increase in abundance of eNOS protein” value (eNOS protein) was 15.7+/−4.3 fold and the “increase of iNOS reporter activity” value (human iNOS gene; n=9) was 8.1+/−0.02 fold. The eNOS activity (eNOS [3]; COS 7 cells transfected with eNOS alone) was “had no effect”, the “increase in eNOS activity” value (eNOS [3]; COS 7 cells transfected with eNOS and ERα, acute stimulation) was over 3 fold and the “vascular injury measures (medial area increase, smooth muscle cell proliferation)” value (vascular injury response; estrogen receptor α knockout ovariectomized female mice) was “markedly inhibited all measures of vascular injury”. The “vascular injury measures (medial area increase, smooth muscle cell proliferation)” value (vascular injury response; wild-type ovariectomized female mice) was “markedly inhibited all measures of vascular injury”, the “increase in abundance of iNOS protein” value (iNOS protein) was 50+/−23 fold and the MAP kinase activity (MAP kinase) was “causes an increase in MAP kinase activity”.
For C[C@]12CC[C@@H]3c4ccc(O)cc4C[C@@H](CCCCCCCCC[S+]([O-])CCCC(F)(F)C(F)(F)F)[C@H]3[C@@H]1CC[C@@H]2O (stereo partly drawn) [ICI 182,780], the “inhibition of acute eNOS response to E2” value (eNOS [1]; PAEC) was “fully inhibited”, the “inhibition of the enhanced eNOS response” value (eNOS [1]; PAEC overexpressing ER) was “inhibited completely” and the “basal eNOS activity” value (eNOS [1]; PAEC) was “caused no change”. For the same compound, the “inhibition of E2 activation of eNOS reporter” value (human eNOS gene) was “blocked fully”, the “inhibition of E2 activation of iNOS reporter” value (human iNOS gene) was “completely inhibited” and the “inhibition of E2-induced increase in MAP kinase activity” value (MAP kinase) was “completely inhibited”.
For COC(=O)[C@@H](N)CCCNC(=N)N[N+](=O)[O-] [L-NAME], the “effect on the 17β estradiol inhibition of contraction” value [2] was “reversed the inhibition” and the “effect on estrogen protection against vascular injury (medial area)” value (vascular injury; co-administration with estrogen, ovariectomized female mice) was “negated”.
In the case of COc1cccc(-c2cc(=O)c3ccccc3o2)c1N [PD98059], the “inhibition of acute eNOS response to E2” value (eNOS [1]; PAEC) is reported as “completely inhibit”.
For O=c1c(-c2ccc(O)cc2)coc2cc(O)cc(O)c12 [genistein], the “inhibition of acute eNOS response to E2” value (eNOS [1]; PAEC) was “completely inhibit” and the “basal eNOS activity” value (eNOS [1]; PAEC) was “do not alter basal eNOS activity”.
With CC/C(=C(\c1ccccc1)c1ccc(OCCN(C)C)cc1)c1ccccc1 [tamoxifen] the “inhibition of acute eNOS response to E2” value (eNOS [1]; PAEC) was “fully inhibited”, the “basal eNOS activity” value (eNOS [1]; PAEC) was “caused no change” and the “inhibition of E2-induced increase in MAP kinase activity” value (MAP kinase) was “completely inhibited”.
With EGF: epidermal growth factor the “effect on luciferase activity” value (estrogen receptor; HeLa cells, EGF 100 ng/ml, 48 hours, serum-free) was “no effect” and the “increase in luciferase activity” value (estrogen receptor; PVEC, HSVSMC and human aortic VSMC, EGF 100 ng/ml, 48 hours, serum-free) was about 3 fold.
With PDGF the estrogen receptor activation (estrogen receptor; all cell types studied (PVEC, HSVSMC, human aortic VSMC, HeLa)) was “did not activate the estrogen receptor”.
With estrogen the “activation of pERE-Luc reporter” value (pERE-Luc reporter) was 8 fold, the “increase in luciferase activity” value (VEGF expression [4]) was 1.8 fold and the “activation of VEGF expression” value (VEGF expression [5]) was “did not activate VEGF expression”. The “reduction of the incidence of coronary artery disease” value [6] was 30-50%, the “increase of luciferase expression” value (VEGF gene [7]) was 1.7±0.2 fold and the “time of protein tyrosine phosphorylation after exposure” value (PAEC) was 5 to 10 min. For the same compound, the “effect on luciferase activity” value (VEGF expression [8]) was “no effect”, the “increase of luciferase expression” value (VEGF gene [9]; HeLa cells co-transfected with estrogen receptor α expression plasmid, n=21) was 4.2±0.8 fold and the “effect on luciferase expression” value (VEGF gene [9]; HeLa cells without estrogen receptor α, estrogen containing media) was “no effect”. For the same compound, the “protection against injury (medial area endpoint)” value (vascular injury; eNOS KO mice, ovariectomized female) was “still able to protect against injury”.
For herbamycin A, the “inhibition of acute eNOS response to E2” value (eNOS [1]; PAEC) was “completely inhibit” and the “basal eNOS activity” value (eNOS [1]; PAEC) was “do not alter basal eNOS activity”.
